Measured values taken from patent publication US7485641B2, “Substituted 3-amino-pyrrolidino-4-lactams” (Pfizer, Inc., priority 2006, dated 2009).
Where a name gives a salt, the structure may show the parent alone.

Molecular target: T1, DPP-IV (Homo sapiens, UniProt P27487)
T1 construct: purchased Enzyme Systems Products SPE-01
Experiment: In vitro assay for dipeptidyl peptidase inhibition
Assay type: biochemical
Conditions: Examples 156-162; n-value in brackets; IC50's or percent inhibition at 300 nM; read-out: DPP-IV inhibition

T1 sequence (P27487 whole entry, species assumed): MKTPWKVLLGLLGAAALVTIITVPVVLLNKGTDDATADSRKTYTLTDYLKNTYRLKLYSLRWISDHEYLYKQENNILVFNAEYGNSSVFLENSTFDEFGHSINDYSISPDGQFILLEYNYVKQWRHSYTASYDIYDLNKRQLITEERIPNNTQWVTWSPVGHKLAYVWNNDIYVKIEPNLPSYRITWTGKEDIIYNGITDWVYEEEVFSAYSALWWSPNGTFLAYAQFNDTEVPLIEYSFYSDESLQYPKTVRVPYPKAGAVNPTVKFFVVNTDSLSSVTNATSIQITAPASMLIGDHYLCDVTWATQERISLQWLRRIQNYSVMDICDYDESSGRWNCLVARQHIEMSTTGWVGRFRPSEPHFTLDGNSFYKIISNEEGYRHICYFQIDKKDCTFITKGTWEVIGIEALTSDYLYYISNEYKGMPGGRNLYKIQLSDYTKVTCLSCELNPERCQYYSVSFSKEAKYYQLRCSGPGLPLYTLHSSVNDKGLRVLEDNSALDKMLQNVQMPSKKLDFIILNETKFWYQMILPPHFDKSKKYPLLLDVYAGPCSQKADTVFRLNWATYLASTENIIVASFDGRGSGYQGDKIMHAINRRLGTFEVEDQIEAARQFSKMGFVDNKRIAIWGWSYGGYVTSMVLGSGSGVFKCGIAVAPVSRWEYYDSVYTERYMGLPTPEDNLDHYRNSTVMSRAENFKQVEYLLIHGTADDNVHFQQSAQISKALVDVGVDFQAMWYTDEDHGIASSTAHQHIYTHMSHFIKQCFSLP

Compound	IC50
COc1ccc2oc(C(=O)N3C[C@H](N)[C@@H](N4CCCCC4=O)C3)cc2c1 [Example 159, 1-[(3S,4S)-4-Amino-1-(5-methoxy-benzofuran-2-carbonyl)-pyrrolidin-3-yl]-piperidin-2-onehydrochloride]	79.3 nM
N[C@H]1CN(C(=O)c2cc3ccccc3s2)C[C@@H]1N1CCCCC1=O [Example 160, 1-[(3S,4S)-4-Amino-1-(benzo[b]thiophene-2-carbonyl)-pyrrolidin-3-yl]-piperidin-2-onehydrochloride]	317 nM

Same assay, conditions: at 300 nM; n-value given in brackets

Compound	DPP-IV Percent Inhibition at 300 nM
COC1(C)CCN(c2ncnc(N3C[C@H](N)[C@@H](N4CCCCC4=O)C3)n2)CC1.O=C(O)C(F)(F)F [Example 36, 1-((3S,4S)-4-Amino-1-(4-(4-methoxy-4-methylpiperidin-1-yl)-1,3,5-triazin-2-yl)pyrrolidin-3-yl)piperidin-2-onetrifluoroacetate]	22.2%(4)

Same assay, conditions: at 300 nM; n-value given in brackets; read-out: DPP-IV Percent Inhibition at 300 nM

Compound	inhibition at 0.3 µM
N[C@H]1CN(c2cc(N3CCc4noc(C(F)(F)F)c4C3)ncn2)C[C@@H]1N1CCCCC1=O [Example 81, 1-((3S,4S)-4-amino-1-(6-(3-(trifluoromethyl)-6,7-dihydroisoxazolo[4,3-c]pyridin-5(4H)-yl)pyrimidin-4-yl)pyrrolidin-3-yl)piperidin-2-one trifluoroacetate]	44.5%
CC(C)C(C)Oc1cc(N2C[C@H](N)[C@@H](N3CCCCC3=O)C2)ncn1 (stereo partly drawn) [Example 95, 1-((3S,4S)-4-Amino-1-(6-(3-methylbutan-2-yloxy)pyrimidin-4-yl)pyrrolidin-3-yl)piperidin-2-one trifluoroacetate]	17.7%
N[C@H]1CN(c2ncnc3cc(OS(=O)(=O)c4ccc(F)c(F)c4)ccc23)C[C@@H]1N1CCCCC1=O [Example 144, 4-((3S,4S)-3-amino-4-(2-oxopiperidin-1-yl)pyrrolidin-1-yl)quinazolin-7-yl 3,4-difluorobenzenesulfonate]	41%
COc1ccc2ncnc(N3C[C@H](N)[C@@H](N4CCCCC4=O)C3)c2c1 [Example 107, 1-((3S,4S)-4-amino-1-(6-methoxyquinazolin-4-yl)pyrrolidin-3-yl)piperidin-2-one]	47%

Same assay, conditions: n-value given in brackets; read-out: DPP-IV IC50

Compound	IC50
N[C@H]1CN(c2cc(N3CCc4cncnc4C3)ncn2)C[C@@H]1N1CCCC1=O [Example 63, 1-((3S,4S)-4-Amino-1-(6-(5,6-dihydropyrido[3,4-d]pyrimidin-7(8H)-yl)pyrimidin-4-yl)pyrrolidin-3-yl)pyrrolidin-2-onedihydrochloride]	1990 nM
CCCc1nc(N2C[C@H](N)[C@@H](N3CCCCC3=O)C2)cc(N2CCC(F)(F)C2)n1 [Example 18, 1-((3S,4S)-4-amino-1-(6-(3,3-difluoropyrrolidin-1-yl)-2-propylpyrimidin-4-yl)pyrrolidin-3-yl)piperidin-2-oneformate]	43.3 nM
N[C@H]1CN(c2ncnc3cc(Oc4cccc(F)c4)ccc23)C[C@@H]1N1CCCCC1=O [Example 120, 1-((3S,4S)-4-amino-1-(7-(3-fluorophenoxy)quinazolin-4-yl)pyrrolidin-3-yl)piperidin-2-oneformate]	79.8 nM
N[C@H]1CN(c2ncnc(N3Cc4ccccc4C3)n2)C[C@@H]1N1CCCCC1=O [Example 51, 1-{(3S,4S)-4-Amino-1-[4-(1,3-dihydro-isoindol-2-yl)-[1,3,5]triazin-2-yl]-pyrrolidin-3-yl}-piperidin-2-onetrifluoroacetate]	48.3 nM
COc1nc(OC)nc(N2C[C@H](N)[C@@H](N3CCCCC3=O)C2)n1 [Example 147, 1-[(3S,4S)-4-Amino-1-(4,6-dimethoxy-[1,3,5]triazin-2-yl)-pyrrolidin-3-yl]-piperidin-2-onetrifluoroacetate]	133 nM
N[C@H]1CN(c2nncc3ccccc23)C[C@@H]1N1CCCCC1=O [Example 145, 1-((3S,4S)-4-amino-1-(phthalazin-1-yl)pyrrolidin-3-yl)piperidin-2-one trifluoroacetate]	224 nM
CNS(=O)(=O)c1cccc2c1CCN(c1ncnc(N3C[C@H](N)[C@@H](N4CCCCC4=O)C3)n1)C2 [Example 58, 2-(4-((3S,4S)-3-Amino-4-(2-oxopiperidin-1-yl)pyrrolidin-1-yl)-1,3,5-triazin-2-yl)-N-methyl-1,2,3,4-tetrahydroisoquinoline-5-sulfonamidetrifluoroacetate]	11.6 nM
N#CCCc1ccc2c(N3C[C@H](N)[C@@H](N4CCCCC4=O)C3)ncnc2c1 [Example 118, 3-(4-((3S,4S)-3-amino-4-(2-oxopiperidin-1-yl)pyrrolidin-1-yl)quinazolin-7-yl)propanenitrile]	85.2 nM
N[C@H]1CN(C(=O)c2cc3cc(Cl)ccc3o2)C[C@@H]1N1CC(F)(F)CCC1=O [Example 153, 1-((3S,4S)-4-amino-1-(5-chlorobenzofuran-2-carbonyl)pyrrolidin-3-yl)-5,5-difluoropiperidin-2-one]	78.6 nM
N[C@H]1CN(c2ncnc(N3CCc4ccccc4C3)n2)C[C@@H]1N1CCCCC1=O [Example 56, 1-{(3S,4S)-4-Amino-1-[4-(3,4-dihydro-1H-isoquinolin-2-yl)-[1,3,5]triazin-2-yl]-pyrrolidin-3-yl}-piperidin-2-onetrifluoroacetate]	85.3 nM
COc1ccc(-c2cc(N3C[C@H](N)[C@@H](N4CC(F)(F)CCC4=O)C3)ncn2)cn1 [Example 9, 1-((3S,4S)-4-amino-1-(6-(6-methoxypyridin-3-yl)pyrimidin-4-yl)pyrrolidin-3-yl)-5,5-difluoropiperidin-2-one trifluoroacetate]	27.3 nM
CS(=O)(=O)c1ccc(S(=O)(=O)Oc2ccc3c(N4C[C@H](N)[C@@H](N5CCCCC5=O)C4)ncnc3c2)cc1 [Example 141, 4-((3S,4S)-3-amino-4-(2-oxopiperidin-1-yl)pyrrolidin-1-yl)quinazolin-7-yl 4-(methylsulfonyl)benzenesulfonate]	278 nM
CCS(=O)(=O)Oc1ccc2c(N3C[C@H](N)[C@@H](N4CCCCC4=O)C3)ncnc2c1 [Example 134, 4-((3S,4S)-3-amino-4-(2-oxopiperidin-1-yl)pyrrolidin-1-yl)quinazolin-7-yl ethanesulfonate]	218 nM
N[C@H]1CN(c2ncnc3cc(OCC(F)(F)F)ccc23)C[C@@H]1N1CCCCC1=O [Example 122, 1-((3S,4S)-4-amino-1-(7-(2,2,2-trifluoroethoxy)quinazolin-4-yl)pyrrolidin-3-yl)piperidin-2-one]	148 nM
N[C@H]1CN(c2ncnc3cc(C(F)(F)F)ccc23)C[C@@H]1N1CCCCC1=O [Example 110, 1-((3S,4S)-4-amino-1-(7-(trifluoromethyl)quinazolin-4-yl)pyrrolidin-3-yl)piperidin-2-one]	47.2 nM
N[C@H]1CN(c2cc(N3CCC(F)(F)C3)nc(C(F)(F)F)n2)C[C@@H]1N1CCCCC1=O [Example 14, 1-((3S,4S)-4-amino-1-(6-(3,3-difluoropyrrolidin-1-yl)-2-(trifluoromethyl)pyrimidin-4-yl)pyrrolidin-3-yl)piperidin-2-one]	45.1 nM
N[C@H]1CN(C(=O)c2cc3cc(Cl)ccc3o2)C[C@@H]1N1CCCCC1=O [Example 154, 1-[(3S,4S)-4-Amino-1-[(5-chloro-1-benzofuran-2-yl)carbonyl]-pyrrolidin-3-yl]-piperidin-2-one hydrochloride]	92.3 nM
COc1ccc(Cl)c2c(N3C[C@H](N)[C@@H](N4CCCCC4=O)C3)ncnc12 [Example 152, 1-((3S,4S)-4-amino-1-(5-chloro-8-methoxyquinazolin-4-yl)pyrrolidin-3-yl)piperidin-2-one trifluoroacetate]	> 30000 nM
N[C@H]1CN(c2ncnc(N3Cc4ccccc4C3)n2)C[C@@H]1N1CC(F)(F)CCC1=O [Example 50, 1-{(3S,4S)-4-amino-1-[4-(1,3-dihydro-isoindol-2-yl)-[1,3,5]triazin-2-yl]-pyrrolidin-3-yl}-5,5-difluoro-piperidin-2-one]	19.2 nM
N[C@H]1CN(c2ncnc3cc(Oc4ccc(OC(F)(F)F)cc4)ccc23)C[C@@H]1N1CCCCC1=O [Example 131, 1-((3S,4S)-4-amino-1-(7-(4-(trifluoromethoxy)phenoxy)quinazolin-4-yl)pyrrolidin-3-yl)piperidin-2-oneformate]	189 nM
CC(C)S(=O)(=O)Oc1ccc2c(N3C[C@H](N)[C@@H](N4CCCCC4=O)C3)ncnc2c1 [Example 136, 4-((3S,4S)-3-amino-4-(2-oxopiperidin-1-yl)pyrrolidin-1-yl)quinazolin-7-yl propane-2-sulfonate]	135 nM
N[C@H]1CN(c2ncnc3c2ncn3C2CC2)C[C@@H]1N1CCCC1=O [Example 151, 1-((3S,4S)-4-Amino-1-(9-cyclopropyl-9H-purin-6-yl)pyrrolidin-3-yl)pyrrolidin-2-one hydrochloride]	> 3000 nM
Cc1nc(N2C[C@H](N)[C@@H](N3CC(F)(F)CCC3=O)C2)cc(N2CCCC(F)(F)C2)n1 [Example 33, 1-((3S,4S)-4-amino-1-(6-(3,3-difluoropiperidin-1-yl)-2-methylpyrimidin-4-yl)pyrrolidin-3-yl)-5,5-difluoropiperidin-2-onetrifluoroacetate]	97.7 nM
N[C@H]1CN(c2cc(N3CC[C@H](F)C3)ncn2)C[C@@H]1N1CC(F)(F)CCC1=O [Example 23, 1-((3S,4S)-4-amino-1-(6-((S)-3-fluoropyrrolidin-1-yl)pyrimidin-4-yl)pyrrolidin-3-yl)-5,5-difluoropiperidin-2-one]	12 nM
CC(C)Oc1ccc2c(N3C[C@H](N)[C@@H](N4CCCCC4=O)C3)ncnc2c1 [Example 115, 1-((3S,4S)-4-amino-1-(7-isopropoxyquinazolin-4-yl)pyrrolidin-3-yl)piperidin-2-one]	29.7 nM
N[C@H]1CN(c2ncnc(N3CCCC3)n2)C[C@@H]1N1CCCCC1=O [Example 32, 1-((3S,4S)-4-Amino-1-(4-(pyrrolidin-1-yl)-1,3,5-triazin-2-yl)pyrrolidin-3-yl)piperidin-2-onetrifluoroacetate]	91.5 nM
